Measured values as given in the NIST ThermoML archive (doi:10.1021/je9001027).

Legend:
[1] = cn = amount concentration of the nth substance listed, in mol/dm3; settings: 101 kPa, Liquid
[2] = wn = mass fraction of the nth substance listed; settings: 101 kPa, Liquid, w2 = 0

[Br-].[Rb+] [rubidium bromide] + C[S+](C)[O-]
[1]
Settings | mass density, 298.15 K [kg/m3] | mass density, 303.15 K [kg/m3] | mass density, 308.15 K [kg/m3] | mass density, 313.15 K [kg/m3] | mass density, 318.15 K [kg/m3] | viscosity, 298.15 K [mPa·s] | viscosity, 303.15 K [mPa·s] | viscosity, 308.15 K [mPa·s] | viscosity, 313.15 K [mPa·s] | viscosity, 318.15 K [mPa·s]
c1 = 0.011 | 1096.9 | 1092.54 | 1087.75 | 1087.75 | 1096.42 | 1.997 | 1.839 | 1.682 | 1.587 | 1.515
c1 = 0.02 | 1098.3 | 1097.71 | – | 1088.77 | 1096.52 | 2.019 | 1.861 | – | 1.604 | 1.531
c1 = 0.024 | – | – | 1088.77 | – | – | – | – | 1.701 | – | –
c1 = 0.026 | – | 1106.91 | – | – | – | – | 1.877 | – | – | –
c1 = 0.027 | 1100.1 | – | 1088.97 | – | 1096.58 | 2.039 | – | 1.712 | – | 1.542
c1 = 0.028 | – | – | – | 1089.77 | – | – | – | – | 1.615 | –
c1 = 0.03 | 1100.4 | 1110.93 | 1089.97 | 1089.97 | 1096.6 | 2.047 | 1.884 | 1.722 | 1.62 | 1.549
c1 = 0.046 | 1102.5 | – | – | 1091.97 | – | 2.085 | – | – | 1.659 | –
c1 = 0.056 | – | 1134.93 | 1091.97 | – | 1096.9 | – | 1.923 | 1.759 | – | 1.581

[Br-].[Rb+] [rubidium bromide] + O
[1]
Settings | mass density, 298.15 K [kg/m3] | mass density, 303.15 K [kg/m3] | mass density, 308.15 K [kg/m3] | viscosity, 298.15 K [mPa·s] | viscosity, 303.15 K [mPa·s] | viscosity, 318.15 K [mPa·s]
c1 = 0.01 | 996.69 | 996.08 | 989.87 | 0.893 | 0.8934 | 0.5367
c1 = 0.013 | 996.84 | 996.08 | 989.89 | 0.8935 | 0.8937 | 0.537
c1 = 0.02 | 997.03 | 996.14 | 989.99 | 0.8953 | 0.8943 | 0.5375
c1 = 0.024 | – | – | 990.03 | – | – | 0.5378
c1 = 0.025 | 997.28 | 996.17 | – | 0.8962 | 0.8946 | –
c1 = 0.034 | – | – | – | – | – | 0.5383
c1 = 0.035 | – | – | 990.13 | – | – | –
c1 = 0.038 | 997.79 | 996.24 | – | 0.8966 | 0.895 | –

O [water] + C[S+](C)[O-]
[2]
Settings | mass density [kg/m3] | viscosity [mPa·s]
298.15 K | – | 0.89
303.15 K | – | 0.8003
308.15 K | 983.66 | 0.7591
313.15 K | – | 0.6214
318.15 K | – | 0.5346
